# Assay results from PubChem BioAssay AID1963962 (Molecular Pharmacology Branch, DTP, NCI, 2024).
# Test system: 967376-340-R-J2-PDC multicell spheroid viability
# Assay: Anticancer human tumor 967376-340-R-J2-PDC patient-derived colon adenocarcinoma cell line growth inhibition [PI3K]
# Conditions: for IC50: curve of first compound; for viability, T/C: stronger effect = lower value
# How it was run: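 Complex 3D spheroids (cancer cells + endothelial HUVEC + mesenchymal stem cells); drug pairs of targeted agent x inavolisib/alpelisib/duvelisib/copanlisib; half-log series from ~Cmax, max 10 microM if Cmax unknown; endpoint viability.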
# [1] = second compound 0.0316 µM, first compound 0.0316 µM
# [2] = second compound 0.0316 µM, first compound 0.1 µM
# [3] = second compound 0.0316 µM, first compound 0.316 µM
# [4] = second compound 0.0316 µM, first compound 1 µM
# [5] = second compound 0.0316 µM, first compound 3.16 µM
# [6] = second compound 0.0316 µM, first compound 10 µM
# [7] = second compound 0.1 µM, first compound 0.0316 µM
# [8] = second compound 0.1 µM, first compound 0.1 µM
# [9] = second compound 0.1 µM, first compound 0.316 µM
# [10] = second compound 0.1 µM, first compound 1 µM
# [11] = second compound 0.1 µM, first compound 3.16 µM
# [12] = second compound 0.1 µM, first compound 10 µM
# [13] = second compound 0.316 µM, first compound 0.0316 µM
# [14] = second compound 0.316 µM, first compound 0.1 µM
# [15] = second compound 0.316 µM, first compound 0.316 µM
# [16] = second compound 0.316 µM, first compound 1 µM
# [17] = second compound 0.316 µM, first compound 3.16 µM
# [18] = second compound 0.316 µM, first compound 10 µM
# [19] = second compound 1 µM, first compound 0.0316 µM
# [20] = second compound 1 µM, first compound 0.1 µM
# [21] = second compound 1 µM, first compound 0.316 µM
# [22] = second compound 1 µM, first compound 1 µM
# [23] = second compound 1 µM, first compound 3.16 µM
# [24] = second compound 1 µM, first compound 10 µM
# 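Further: spheroids exposed to agents for 7 days before read-out.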
# 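Wherever viability, T/C is given: luminescence used as surrogate of cell viability.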
structure (smiles),measurement,setting,value
CC1(C)CCC(Nc2ncc(C(F)(F)F)c(-c3c[nH]c4c(P(C)(C)=O)c(C#N)ccc34)n2)CN1 (stereo unspecified) + COc1c(OCCCN2CCOCC2)ccc2c3n(c(=NC(=O)c4cnc(N)nc4)nc12)CCN3,IC50,second compound 0.00316 µM,> 10000 nM
same,IC50,second compound 0.01 µM,9470 nM
same,IC50,second compound 0.0316 µM,3060 nM
same,IC50,second compound 0.1 µM,196 nM
same,IC50,second compound 0.316 µM,< 31.6 nM
same,IC50,second compound 1 µM,< 31.6 nM
same,"viability, T/C","second compound 0.00316 µM, first compound 0.0316 µM",84.5%
same,"viability, T/C","second compound 0.00316 µM, first compound 0.1 µM",81.8%
same,"viability, T/C","second compound 0.00316 µM, first compound 0.316 µM",80.2%
same,"viability, T/C","second compound 0.00316 µM, first compound 1 µM",80%
same,"viability, T/C","second compound 0.00316 µM, first compound 3.16 µM",66.2%
same,"viability, T/C","second compound 0.00316 µM, first compound 10 µM",59.6%
same,"viability, T/C","second compound 0.01 µM, first compound 0.0316 µM",79.7%
same,"viability, T/C","second compound 0.01 µM, first compound 0.1 µM",77.4%
same,"viability, T/C","second compound 0.01 µM, first compound 0.316 µM",75.2%
same,"viability, T/C","second compound 0.01 µM, first compound 1 µM",75.5%
same,"viability, T/C","second compound 0.01 µM, first compound 3.16 µM",61.9%
same,"viability, T/C","second compound 0.01 µM, first compound 10 µM",49.4%
same,"viability, T/C",[1],69.9%
same,"viability, T/C",[2],84%
same,"viability, T/C",[3],73.8%
same,"viability, T/C",[4],66.5%
same,"viability, T/C",[5],49.4%
same,"viability, T/C",[6],45.9%
same,"viability, T/C",[7],72.3%
same,"viability, T/C",[8],47.6%
same,"viability, T/C",[9],54.1%
same,"viability, T/C",[10],45.5%
same,"viability, T/C",[11],43.7%
same,"viability, T/C",[12],36.5%
same,"viability, T/C",[13],49.4%
same,"viability, T/C",[14],45%
same,"viability, T/C",[15],37.3%
same,"viability, T/C",[16],38.4%
same,"viability, T/C",[17],36.6%
same,"viability, T/C",[18],22.3%
same,"viability, T/C",[19],32%
same,"viability, T/C",[20],27.4%
same,"viability, T/C",[21],34%
same,"viability, T/C",[22],30.7%
same,"viability, T/C",[23],27.1%
same,"viability, T/C",[24],20.9%
CNC(=O)c1ccc(N2C(=S)N(c3ccc(C#N)c(C(F)(F)F)c3)C(=O)C2(C)C)cc1F + Cc1nc(NC(=O)N2CCCC2C(N)=O)sc1-c1ccnc(C(C)(C)C(F)(F)F)c1,IC50,second compound 0.0316 µM,> 10000 nM
same,IC50,second compound 0.1 µM,> 10000 nM
same,IC50,second compound 0.316 µM,> 10000 nM
same,IC50,second compound 1 µM,> 10000 nM
same,IC50,second compound 3.16 µM,> 10000 nM
same,IC50,second compound 10 µM,> 10000 nM
same,"viability, T/C",[1],72.6%
same,"viability, T/C",[2],93.5%
same,"viability, T/C",[3],90.1%
same,"viability, T/C",[4],98.6%
same,"viability, T/C",[5],107%
same,"viability, T/C",[6],105%
same,"viability, T/C",[7],129%
same,"viability, T/C",[8],85.5%
same,"viability, T/C",[9],86.8%
same,"viability, T/C",[10],88.5%
same,"viability, T/C",[11],101%
same,"viability, T/C",[12],84%
same,"viability, T/C",[13],64.2%
same,"viability, T/C",[14],72.8%
same,"viability, T/C",[15],92.6%
same,"viability, T/C",[16],83.5%
same,"viability, T/C",[17],115%
same,"viability, T/C",[18],85.8%
same,"viability, T/C",[19],65.6%
same,"viability, T/C",[20],70%
same,"viability, T/C",[21],65.6%
same,"viability, T/C",[22],68.5%
same,"viability, T/C",[23],79.7%
same,"viability, T/C",[24],75%
same,"viability, T/C","second compound 3.16 µM, first compound 0.0316 µM",58.9%
same,"viability, T/C","second compound 3.16 µM, first compound 0.1 µM",62.6%
same,"viability, T/C","second compound 3.16 µM, first compound 0.316 µM",58.7%
same,"viability, T/C","second compound 3.16 µM, first compound 1 µM",55.9%
same,"viability, T/C","second compound 3.16 µM, first compound 3.16 µM",63.6%
same,"viability, T/C","second compound 3.16 µM, first compound 10 µM",59%
same,"viability, T/C","second compound 10 µM, first compound 0.0316 µM",63.9%
same,"viability, T/C","second compound 10 µM, first compound 0.1 µM",55%
same,"viability, T/C","second compound 10 µM, first compound 0.316 µM",53.2%
same,"viability, T/C","second compound 10 µM, first compound 1 µM",57.3%
same,"viability, T/C","second compound 10 µM, first compound 3.16 µM",47.3%
same,"viability, T/C","second compound 10 µM, first compound 10 µM",59.5%
Cn1cnc2c(F)c(Nc3ccc(Br)cc3Cl)c(C(=O)NOCCO)cc21 + Cc1nc(NC(=O)N2CCCC2C(N)=O)sc1-c1ccnc(C(C)(C)C(F)(F)F)c1,IC50,second compound 0.0316 µM,659 nM
same,IC50,second compound 0.1 µM,679 nM
same,IC50,second compound 0.316 µM,360 nM
same,IC50,second compound 1 µM,304 nM
same,IC50,second compound 3.16 µM,97.7 nM
same,IC50,second compound 10 µM,39.4 nM
same,"viability, T/C","second compound 0.0316 µM, first compound 0.00949 µM",89%
same,"viability, T/C","second compound 0.0316 µM, first compound 0.03 µM",101%
same,"viability, T/C","second compound 0.0316 µM, first compound 0.0949 µM",104%
same,"viability, T/C","second compound 0.0316 µM, first compound 0.3 µM",60%
same,"viability, T/C","second compound 0.0316 µM, first compound 0.949 µM",48.1%
same,"viability, T/C","second compound 0.0316 µM, first compound 3 µM",19.7%
same,"viability, T/C","second compound 0.1 µM, first compound 0.00949 µM",88.3%
same,"viability, T/C","second compound 0.1 µM, first compound 0.03 µM",56.1%
same,"viability, T/C","second compound 0.1 µM, first compound 0.0949 µM",76.7%
same,"viability, T/C","second compound 0.1 µM, first compound 0.3 µM",61.8%
same,"viability, T/C","second compound 0.1 µM, first compound 0.949 µM",43.8%
same,"viability, T/C","second compound 0.1 µM, first compound 3 µM",28.7%
same,"viability, T/C","second compound 0.316 µM, first compound 0.00949 µM",68.5%
same,"viability, T/C","second compound 0.316 µM, first compound 0.03 µM",81.5%
same,"viability, T/C","second compound 0.316 µM, first compound 0.0949 µM",62.5%
same,"viability, T/C","second compound 0.316 µM, first compound 0.3 µM",56.7%
same,"viability, T/C","second compound 0.316 µM, first compound 0.949 µM",27%
same,"viability, T/C","second compound 0.316 µM, first compound 3 µM",16%
same,"viability, T/C","second compound 1 µM, first compound 0.00949 µM",68.8%
same,"viability, T/C","second compound 1 µM, first compound 0.03 µM",64.4%
same,"viability, T/C","second compound 1 µM, first compound 0.0949 µM",61.1%
same,"viability, T/C","second compound 1 µM, first compound 0.3 µM",51.6%
same,"viability, T/C","second compound 1 µM, first compound 0.949 µM",28.4%
same,"viability, T/C","second compound 1 µM, first compound 3 µM",15.6%
same,"viability, T/C","second compound 3.16 µM, first compound 0.00949 µM",54%
same,"viability, T/C","second compound 3.16 µM, first compound 0.03 µM",64.8%
same,"viability, T/C","second compound 3.16 µM, first compound 0.0949 µM",49.2%
same,"viability, T/C","second compound 3.16 µM, first compound 0.3 µM",26.6%
same,"viability, T/C","second compound 3.16 µM, first compound 0.949 µM",9.72%
same,"viability, T/C","second compound 3.16 µM, first compound 3 µM",3.22%
same,"viability, T/C","second compound 10 µM, first compound 0.00949 µM",54.6%
same,"viability, T/C","second compound 10 µM, first compound 0.03 µM",49.7%
same,"viability, T/C","second compound 10 µM, first compound 0.0949 µM",44.6%
same,"viability, T/C","second compound 10 µM, first compound 0.3 µM",28.8%
same,"viability, T/C","second compound 10 µM, first compound 0.949 µM",5.99%
same,"viability, T/C","second compound 10 µM, first compound 3 µM",1.33%
